Laboratory results taken from patent US20250197377A1, “NOVEL PHARMACEUTICAL SALTS AND POLYMORPHIC FORMS OF AN ERBB AND BTK INHIBITOR” (DIZAL (JIANGSU) PHARMACEUTICAL CO., LTD., priority 2021, published 2025).
Values after ≈ are worked out from the molar mass of the structure shown. Values joined by “and” are separate entries in the source; they are usually repeats but may differ in a detail not shown here. Equal entries are not always repeated. Where two headings read alike, the source gives them in different places.

Key:
[1] = test system: Ba/F3_NPH; assay: In vitro cell based assay, anti-proliferation GI50, Ba/F3_NPH; conditions: EGFR H773_V774insNPH
[2] = PK study of Form A and Form B in Dog; type: in vivo; conditions: 10 mg/kg
[3] = Form A and Form B inter-conversion study (competitive slurry, XRPD); type: physicochemical
Protocol: Competitive slurry experiments were conducted to evaluate the relative stability of Form A and Form B. Inter-conversion study was performed at room temperature and 50° C. using single and binary solvents listed in the Table 1 below. About 80 mg (100 mg for 50° C.) of Form A and Form B (1:1, w/w) was weighed into sample vials (8 mL) and then 3 mL (2 mL for 50° C.) of solvents were added to each vial. The obtained suspensions were kept stirring for 7 days at room temperature and 50° C., then filtered at specified time. The wet and dried solids were analyzed by XRPD (dried in vacuum oven at 45° C.).
Form B was dominant in tested solvent systems with water activity below 0.15 at room temperature (24˜27° C.). […] Pure Form A and Form B were stable during drying process (50° C., vacuum) for at least 2 days.

[4] = Solubility in bio-relevant media; type: physicochemical
[5] = biological target: T1, EGFR H773_V774insNPH (Homo sapiens, UniProt P00533, INS773NPH); assay: In vitro cell based assay, PD IC50, Ba/F3_NPH
T1 construct: expressed in transfected cells; host or cells: Ba/F3 (Ba/F3_NPH)

[6] = biological target: T2, EGFR L858R/T790M (Homo sapiens, UniProt P00533, L858R/T790M); assay: In vitro cell based assay, PD IC50, NCI-H1975
T2 construct: Form A and B in vitro cell based assay; endogenous in cells; host or cells: NCI-H1975

[7] = PK study of Form A and Form B in Rat; type: in vivo; conditions: rat, in vivo; for AUC(0-t): read-out: Mean AUC0~48; for half-life: read-out: Mean t1/2 (converted); for Tmax: read-out: Median Tmax
[8] = Solubility in organic solvents and water; type: physicochemical; conditions: r.t.
[9] = Dynamic moisture sorption analysis (DVS); type: physicochemical
Protocol: DVS was determined using DVS Advantage-1 or Intrinsic (SMS, UK). The sample was tested at a targeted RH of 10 to 90% full cycle in step mode. The analysis was performed in 10% RH increments. Equilibrium:60 min RH (%) measurement points: First cycle: 0, 10, 20, 30, 40, 50, 60, 70, 80, 90. Second cycle: 90, 80, 70, 60, 50, 40, 30, 20, 10, 0.

[10] = test system: PC-9; assay: In vitro cell based assay, anti-proliferation GI50, PC-9; conditions: Homo sapiens, PC-9, EGFR 19Del
[11] = test system: A431; assay: In vitro cell based assay, anti-proliferation GI50, A431; conditions: Homo sapiens, A-431, EGFR Wildtype
[12] = biological target: T3, EGFR 19Del (Homo sapiens, UniProt P00533, DEL746-750); assay: In vitro cell based assay, PD IC50, PC-9
T3 construct: Form A and B in vitro cell based assay; endogenous in cells; host or cells: PC-9

[13] = test system: 3T3_YVMA; assay: In vitro cell based assay, anti-proliferation GI50, 3T3_YVMA; conditions: HER2 A775_G776insYVMA
[14] = Water activity study of Form A and Form B (slurry, XRPD); type: physicochemical; conditions: 24~27° C. (before dry)
Protocol: To study the effects of water on the stability of Form A and Form B, slurry experiments in the systems with different water activity were carried out. Form A or Form B was suspended separately in different water activity systems (Table 4). […] Residual solids were filtered and then dried in the vacuum oven at 45° C. for 8-24 hours. Dry solids were characterized by XRPD.

[15] = biological target: T4, EGFR Wildtype (Homo sapiens, UniProt P00533); assay: In vitro cell based assay, PD IC50, A431
T4 construct: Form A and B in vitro cell based assay; endogenous in cells; host or cells: A431

[16] = biological target: T5, HER2 A775_G776insYVMA (Homo sapiens, UniProt P04626, INS775YVMA); assay: In vitro cell based assay, PD IC50, 3T3_YVMA
T5 construct: expressed in transfected cells; host or cells: 3T3 (3T3_YVMA)

[17] = test system: NCI-H1975; assay: In vitro cell based assay, anti-proliferation GI50, NCI-H1975; conditions: Homo sapiens, NCI-H1975, EGFR L858R/T790M

T5 sequence (P04626 with tags, fused parts or gaps INS775YVMA): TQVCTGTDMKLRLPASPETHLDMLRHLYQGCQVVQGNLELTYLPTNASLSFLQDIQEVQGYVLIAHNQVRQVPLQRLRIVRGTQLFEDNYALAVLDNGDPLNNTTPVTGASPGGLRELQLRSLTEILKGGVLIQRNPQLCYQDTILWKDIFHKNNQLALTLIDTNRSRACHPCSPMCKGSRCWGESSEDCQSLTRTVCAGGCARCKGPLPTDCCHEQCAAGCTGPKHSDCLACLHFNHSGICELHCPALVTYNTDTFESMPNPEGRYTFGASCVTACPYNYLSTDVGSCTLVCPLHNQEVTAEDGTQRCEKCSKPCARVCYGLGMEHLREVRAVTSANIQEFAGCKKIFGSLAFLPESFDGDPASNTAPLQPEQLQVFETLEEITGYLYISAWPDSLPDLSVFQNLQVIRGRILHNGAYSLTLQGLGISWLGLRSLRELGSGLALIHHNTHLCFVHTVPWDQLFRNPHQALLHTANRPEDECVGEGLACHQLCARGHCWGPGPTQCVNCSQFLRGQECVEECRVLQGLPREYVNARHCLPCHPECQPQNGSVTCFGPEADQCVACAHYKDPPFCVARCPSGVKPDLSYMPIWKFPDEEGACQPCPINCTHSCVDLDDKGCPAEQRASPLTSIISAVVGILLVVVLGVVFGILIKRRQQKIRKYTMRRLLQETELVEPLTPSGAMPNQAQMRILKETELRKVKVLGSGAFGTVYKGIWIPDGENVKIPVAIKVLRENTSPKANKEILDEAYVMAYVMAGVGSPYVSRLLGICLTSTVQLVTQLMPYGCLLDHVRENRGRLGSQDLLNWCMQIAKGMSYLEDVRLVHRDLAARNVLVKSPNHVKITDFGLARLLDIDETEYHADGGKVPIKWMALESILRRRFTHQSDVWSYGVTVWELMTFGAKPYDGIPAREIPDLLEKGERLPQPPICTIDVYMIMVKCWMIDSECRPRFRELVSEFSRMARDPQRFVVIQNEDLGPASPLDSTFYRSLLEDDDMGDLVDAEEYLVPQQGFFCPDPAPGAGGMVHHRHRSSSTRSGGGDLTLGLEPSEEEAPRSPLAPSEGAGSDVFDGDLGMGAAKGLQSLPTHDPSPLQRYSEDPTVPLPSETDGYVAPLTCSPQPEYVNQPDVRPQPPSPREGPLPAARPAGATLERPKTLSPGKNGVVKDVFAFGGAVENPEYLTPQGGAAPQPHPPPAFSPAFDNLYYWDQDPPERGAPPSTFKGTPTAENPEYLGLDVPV
T1 sequence (P00533 with tags, fused parts or gaps INS773NPH): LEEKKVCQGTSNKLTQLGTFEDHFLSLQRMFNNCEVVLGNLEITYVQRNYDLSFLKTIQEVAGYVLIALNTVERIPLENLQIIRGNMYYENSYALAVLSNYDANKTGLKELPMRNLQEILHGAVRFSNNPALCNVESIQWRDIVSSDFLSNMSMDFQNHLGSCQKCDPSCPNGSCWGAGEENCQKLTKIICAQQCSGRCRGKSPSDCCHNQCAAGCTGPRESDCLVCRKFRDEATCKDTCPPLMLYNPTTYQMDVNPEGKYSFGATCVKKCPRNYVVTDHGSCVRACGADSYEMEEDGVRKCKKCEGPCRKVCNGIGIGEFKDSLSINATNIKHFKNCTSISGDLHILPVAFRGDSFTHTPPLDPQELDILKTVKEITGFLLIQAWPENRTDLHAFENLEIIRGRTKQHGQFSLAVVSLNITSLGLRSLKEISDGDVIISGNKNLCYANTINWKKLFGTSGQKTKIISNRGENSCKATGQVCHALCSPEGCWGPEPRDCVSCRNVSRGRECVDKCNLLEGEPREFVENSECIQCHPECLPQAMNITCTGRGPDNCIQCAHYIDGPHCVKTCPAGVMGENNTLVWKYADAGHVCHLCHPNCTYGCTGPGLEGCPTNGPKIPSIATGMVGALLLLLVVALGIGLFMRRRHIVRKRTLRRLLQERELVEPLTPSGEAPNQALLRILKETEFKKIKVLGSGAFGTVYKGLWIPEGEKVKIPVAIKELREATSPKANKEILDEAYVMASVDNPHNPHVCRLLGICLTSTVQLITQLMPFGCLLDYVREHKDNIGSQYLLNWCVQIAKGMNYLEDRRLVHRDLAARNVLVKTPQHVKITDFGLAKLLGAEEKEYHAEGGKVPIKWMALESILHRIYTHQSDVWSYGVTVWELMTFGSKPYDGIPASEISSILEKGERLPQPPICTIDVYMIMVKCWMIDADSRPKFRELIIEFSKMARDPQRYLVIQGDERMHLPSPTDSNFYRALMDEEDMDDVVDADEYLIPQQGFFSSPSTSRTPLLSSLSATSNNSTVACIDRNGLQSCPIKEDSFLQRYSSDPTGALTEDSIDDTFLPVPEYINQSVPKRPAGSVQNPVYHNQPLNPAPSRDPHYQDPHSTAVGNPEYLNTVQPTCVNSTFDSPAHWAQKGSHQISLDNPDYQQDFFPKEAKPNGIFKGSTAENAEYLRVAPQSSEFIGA
T2 sequence (P00533 25-1210 T790M/L858R): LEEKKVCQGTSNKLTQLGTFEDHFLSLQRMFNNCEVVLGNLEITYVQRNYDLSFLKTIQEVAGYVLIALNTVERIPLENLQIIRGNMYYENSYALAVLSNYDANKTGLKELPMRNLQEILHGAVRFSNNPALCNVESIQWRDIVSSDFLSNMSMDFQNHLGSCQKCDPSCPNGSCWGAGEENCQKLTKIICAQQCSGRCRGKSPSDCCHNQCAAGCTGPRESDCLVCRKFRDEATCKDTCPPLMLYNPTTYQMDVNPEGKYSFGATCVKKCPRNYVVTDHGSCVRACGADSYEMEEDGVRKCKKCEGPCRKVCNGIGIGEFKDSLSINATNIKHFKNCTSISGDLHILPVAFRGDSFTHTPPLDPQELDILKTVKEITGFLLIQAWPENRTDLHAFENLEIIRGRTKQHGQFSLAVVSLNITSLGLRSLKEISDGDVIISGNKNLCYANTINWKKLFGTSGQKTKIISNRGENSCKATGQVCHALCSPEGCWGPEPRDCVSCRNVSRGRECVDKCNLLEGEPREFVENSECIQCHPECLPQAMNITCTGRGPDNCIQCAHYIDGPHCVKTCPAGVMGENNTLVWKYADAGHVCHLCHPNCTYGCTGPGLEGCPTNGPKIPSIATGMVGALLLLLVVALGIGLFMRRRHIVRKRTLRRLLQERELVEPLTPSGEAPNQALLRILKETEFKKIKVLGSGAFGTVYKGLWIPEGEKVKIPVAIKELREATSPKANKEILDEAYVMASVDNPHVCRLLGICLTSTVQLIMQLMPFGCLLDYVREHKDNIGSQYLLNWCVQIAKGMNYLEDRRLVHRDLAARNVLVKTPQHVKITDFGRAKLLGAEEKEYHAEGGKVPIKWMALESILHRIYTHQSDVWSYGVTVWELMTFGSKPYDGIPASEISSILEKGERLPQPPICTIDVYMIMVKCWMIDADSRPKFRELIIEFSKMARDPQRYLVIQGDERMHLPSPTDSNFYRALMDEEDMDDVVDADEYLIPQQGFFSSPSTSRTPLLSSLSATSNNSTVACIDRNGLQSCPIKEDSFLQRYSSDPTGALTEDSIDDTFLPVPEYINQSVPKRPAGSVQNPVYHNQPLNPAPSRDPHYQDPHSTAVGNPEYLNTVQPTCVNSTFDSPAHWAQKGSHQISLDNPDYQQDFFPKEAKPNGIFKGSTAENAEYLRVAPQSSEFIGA
T3 sequence (P00533 with tags, fused parts or gaps DEL746-750): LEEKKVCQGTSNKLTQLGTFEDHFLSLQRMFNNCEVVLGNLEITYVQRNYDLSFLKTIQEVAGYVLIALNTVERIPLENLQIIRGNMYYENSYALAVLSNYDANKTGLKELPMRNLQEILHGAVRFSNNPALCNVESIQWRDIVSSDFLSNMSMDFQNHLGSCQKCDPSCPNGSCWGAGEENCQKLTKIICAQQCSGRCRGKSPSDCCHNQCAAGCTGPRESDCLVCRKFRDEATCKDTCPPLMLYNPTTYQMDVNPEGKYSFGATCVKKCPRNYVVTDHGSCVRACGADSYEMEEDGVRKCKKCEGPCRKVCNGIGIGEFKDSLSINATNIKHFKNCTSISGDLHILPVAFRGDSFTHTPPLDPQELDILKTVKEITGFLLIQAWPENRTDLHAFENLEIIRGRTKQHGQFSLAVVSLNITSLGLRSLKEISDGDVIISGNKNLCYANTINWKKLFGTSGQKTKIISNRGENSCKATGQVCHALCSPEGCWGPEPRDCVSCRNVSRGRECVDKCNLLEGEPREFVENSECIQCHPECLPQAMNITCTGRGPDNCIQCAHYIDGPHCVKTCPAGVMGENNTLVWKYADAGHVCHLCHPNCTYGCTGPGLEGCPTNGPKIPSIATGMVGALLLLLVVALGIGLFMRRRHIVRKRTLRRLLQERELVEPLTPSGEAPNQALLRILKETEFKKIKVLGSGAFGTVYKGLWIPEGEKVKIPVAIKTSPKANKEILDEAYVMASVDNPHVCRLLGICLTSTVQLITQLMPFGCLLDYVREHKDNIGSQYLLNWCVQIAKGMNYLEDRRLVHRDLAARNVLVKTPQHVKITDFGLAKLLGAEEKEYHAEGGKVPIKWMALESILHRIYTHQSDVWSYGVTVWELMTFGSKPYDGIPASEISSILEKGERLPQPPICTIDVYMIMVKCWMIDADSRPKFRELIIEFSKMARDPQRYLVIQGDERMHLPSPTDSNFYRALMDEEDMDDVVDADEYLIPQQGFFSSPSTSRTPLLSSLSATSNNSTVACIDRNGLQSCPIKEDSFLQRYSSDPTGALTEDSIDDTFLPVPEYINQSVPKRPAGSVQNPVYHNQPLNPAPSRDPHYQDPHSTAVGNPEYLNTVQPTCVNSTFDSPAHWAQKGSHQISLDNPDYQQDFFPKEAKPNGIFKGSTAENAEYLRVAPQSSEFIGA

GI50 [1]: 58.2 nM
Stability of pure form during drying process ([3]; 50° C., vacuum, at least 2 days): stable
Form change during the drying process ([3]; mixture of Form A and Form B): converted into Form B
Solubility ([4]; FaSSIF, 0.5 h): 170 µg/mL (≈ 0.291 mM)
Solubility ([4]; FaSSIF, 2 h): 190 µg/mL (≈ 0.325 mM)
Solubility ([4]; FaSSIF, 24 h): 260 µg/mL (≈ 0.445 mM)
Solubility ([4]; FeSSIF, 0.5 h): 4600 µg/mL (≈ 7.88 mM)
Solubility ([4]; FeSSIF, 2 h): 6880 µg/mL (≈ 11.8 mM)
Solubility ([4]; FeSSIF, 24 h): 11640 µg/mL (≈ 19.9 mM)
Solubility ([4]; SGF, 0.5 h): 23120 µg/mL (≈ 39.6 mM)
Solubility ([4]; SGF, 2 h): 24350 µg/mL (≈ 41.7 mM)
Solubility ([4]; SGF, 24 h): 24410 µg/mL (≈ 41.8 mM)
Solubility ([4]; SIF, 0.5 h): 29 µg/mL (≈ 0.0496 mM)
Solubility ([4]; SIF, 2 h): 40 µg/mL (≈ 0.0685 mM)
Solubility ([4]; SIF, 24 h): 40 µg/mL (≈ 0.0685 mM)
IC50 [5]: 32.4 nM
IC50 [6]: 2.1 nM
Cmax ([7]; 25 mg/kg): 199 ng/mL
AUC(0-t) ([7]; 25 mg/kg): 2130 ng·h/mL
half-life ([7]; 25 mg/kg): 4.4 h
Tmax ([7]; 25 mg/kg): 4 h
Cmax ([7]; 75 mg/kg): 506 ng/mL
AUC(0-t) ([7]; 75 mg/kg): 6870 ng·h/mL
half-life ([7]; 75 mg/kg): 6 h
Tmax ([7]; 75 mg/kg): 4 h
Solubility ([8]; Acetonitrile): S < 2.14 mg/ml
Solubility ([8]; EtOH, organic solvent or mixture, EtOH, read-out: Solubility): 13400 to 17800 µg/mL (≈ 22.9 to 30.5 mM)
Solubility ([8]; Ethyl acetate): S < 2.16 mg/ml
Solubility ([8]; MTBE, organic solvent or mixture, MTBE, read-out: Solubility): < 1820 µg/mL
Solubility ([8]; MeOH, organic solvent or mixture, MeOH, read-out: Solubility): 24800 to 49500 µg/mL (≈ 42.4 to 84.7 mM)
Solubility ([8]; THF, organic solvent or mixture, THF, read-out: Solubility): 17200 to 25800 µg/mL (≈ 29.4 to 44.1 mM)
Solubility ([8]; acetone, organic solvent or mixture, Acetone, read-out: Solubility): 5120 to 5690 µg/mL (≈ 8.77 to 9.74 mM)
Solubility ([8]; isopropanol, organic solvent or mixture, Isopropanol, read-out: Solubility): 4450 to 4940 µg/mL (≈ 7.62 to 8.46 mM)
Solubility ([8]; water, read-out: Solubility): < 2040 µg/mL
DVS (ΔW %, 80% RH) [9]: 0.63%
GI50 [10]: 4.76 nM
GI50 [11]: 42.2 nM
IC50 [12]: 2.13 nM
XRPD results of slurry in different water activity solvent ([14]; 0% water/acetone, water activity 0, 1 d): Form A
XRPD results of slurry in different water activity solvent ([14]; 0% water/acetone, water activity 0, 3 d): Form A
XRPD results of slurry in different water activity solvent ([14]; 0% water/acetone, water activity 0, 7 d): Form A + B
XRPD results of slurry in different water activity solvent ([14]; 3% water/acetone, water activity 0.312, 3 d): Form A
XRPD results of slurry in different water activity solvent ([14]; 3% water/acetone, water activity 0.312, 7 d): Form A + B
XRPD results of slurry in different water activity solvent ([14]; 30% water/acetone, water activity 0.747, 1 d): Form A
XRPD results of slurry in different water activity solvent ([14]; 30% water/acetone, water activity 0.747, 3 d): Form A
XRPD results of slurry in different water activity solvent ([14]; 30% water/acetone, water activity 0.747, 7 d): Form A + B
XRPD results of slurry in different water activity solvent ([14]; water, 7 d): Form A
IC50 [15]: 43.1 nM
IC50 [16]: 3.84 nM
GI50 [17]: 2.22 nM
Compound: C=CC(=O)Nc1cc(Nc2nccc(Nc3cc(Cl)c(F)cc3C(C)(C)O)n2)c(OC)cc1N1CC[C@@H](N(C)C)C1 [Form A, (R)-N-(5-((4-((5-chloro-4-fluoro-2-(2-hydroxypropan-2-yl)phenyl)amino)pyrimidin-2-yl)amino)-2-(3-(dimethylamino)pyrrolidin-1-yl)-4-methoxyphenyl)acrylamide]
AUC0-24 h ([2]; Female (individual animals)): 2.30 hr*μM/(mg/kg) and 1.80 hr*μM/(mg/kg)
AUC0-24 h ([2]; Male (individual animals)): 3.47 hr*μM/(mg/kg) and 5.47 hr*μM/(mg/kg)
GI50 [13]: 44.3 nM
